From US20180353524A1, “CANCER TREATMENT USING 2-DEOXY-2-FLUORO-L-FUCOSE IN COMBINATION WITH A CHECKPOINT INHIBITOR” (SEATTLE GENETICS, INC., priority 2015, published 2018)

Legend:
[1] = test system: T-cells (TCR binding of antigen specific tetramers); assay: Tetramer staining of T-cells; type: cell-based, human; details: T-cells expanded with 100 μM
SMAD2 = assay: TGFβ signaling, pSMAD2 western blot in T-cells; type: cell-based, human; details: TGFβ 5 ng/mL for 10 min after 6 h serum starvation
Protocol: Cells were plated in 6-well dishes (2.5×10^6 cells/well) with serum-free RPMI medium (1% PS, 2.5 mL) and after 6 h of serum starvation, cells were stimulated with TGFβ (5 ng/mL) for 10 min. The cells were harvested, washed twice in PBS, and snap frozen on dry ice followed by storage at −80 ° C. Cells were lysed with RIPA buffer (containing DNAse and protease/phosphatase inhibitors). As described previously, cell lysates were run on SDS-PAGE and examined by western blot on nitrocellulose membranes with anti-pSMAD2 and anti-actin antibodies.

regulatory T-cells = assay: Regulatory T-cell and FOXp3 analysis in T-cell cultures (FACS); type: cell-based, human; details: T-cell culture
Protocol: Regulatory T-cells in cultures were identified using the Human Regulatory T-cell Cocktail (BD Pharmingen™) and analyzed using FACS. Briefly, cells were washed into BD stain buffer (BSA) with human Fc block (EMD Millipore) and incubated on ice for 30 min. Cells were then stained with fluorescently labeled Human Regulatory T-cell Cocktail (BD Pharmingen™, 1:100 in BD stain buffer (BSA)) or with appropriate isotype controls (ice, dark, 40 min). Cells were then washed twice in BD stain buffer (BSA) and analyzed on an LSRII flow cytometer. Regulatory T-cells were identified as CD4+, CD25+ and CD127 LOW.
T-cells were prepared in the same manner as for intracellular staining as above, where they were fixed and permeabilized and stained with an anti-FOXp3 antibody (BD Biosciences) and analyzed by FACS. In brief, after incubation in BD stain buffer (FBS) with Human Fc block (Miltenyi Biotec) on ice for 30 min as described previously, cells were stained with anti-CD4 antibody for 20 min in the dark (RT). An equal volume of BD stain buffer (FBS) was added and samples were spun and washed once in BD stain buffer (FBS) followed by resuspension in cold BD Cytofix™ fixation buffer for 30 min at RT. Cells were pelleted washed twice in BD stain buffer (FBS), resuspended, and incubated in BD Perm/Wash™ buffer at RT for 30 min. […]

4T1 cells = assay: 4T1 mouse tumor study, tumor infiltrating immune cells; type: in vivo, balb/c mice; details: 4T1 tumors, 20 mM in drinking water
Protocol: To evaluate the effect of 2FF treatment on tumor infiltrating immune cells balb/c mice were implanted with 4T1 cells (2×10^4 injected sc.) and on the same day started on 20 mM 2FF drinking water. On day 19 (when tumors were approximately ˜250-300 mm^3) or day 28 (when tumors were ˜800-1000 mm^3) tumors were removed, finely minced with a razor blade and suspend in 5 mL cold disassociation buffer (DMEM (high glucose) media, 5% FBS, 1 M HEPES, 2 mg/mL collagenase D (Roche), 0.1 mg/mL DNAse I (50 mg/mL stock in 20 mM Tris-HCL (ph7.5), 1 mM MgCl2, 50% glycerol) and transferred to a Miltenyi C-tube. GentleMACS was run on each tube and the tubes incubated at 37° C. for 40 minutes with continuous rotation. GentleMACS was then run twice and the tubes quickly spun down to collect the tumor in the bottom of the tube. The tube contents was then passed through a 70 μm mesh filter into a 50 mL falcon tube using the rubber stopper of a syringe to gently dissociate the tissue. The filter was washed with 5 mL of cold enzyme inhibitor buffer (DMEM (high glucose), 0.25 M EDTA) and the tube spun down, supernatant discarded and the samples re-suspend in PBS. Cells were then stained with eFluor®506 viability dye (eBioscience) following the manufactures instructions. Cells were washed twice in FACS staining buffer (0.5% FBS, 0.05% NaN3) and immune phenotyped with three different panels of antibodies, each containing an antibody against CD45 to identify immune cells. The cells phenotyped for dendritic cell antigens were stained with the desired antiboides for 30 minutes in the dark on ice, washed twice in staining buffer and resuspended in 1:4 PBS:fixation buffer (Biolgend) and stored at 4° C. overnight. The following day cells were washed in FACS stain buffer and analyzed on the LSRII flow cytometer. The cells phenotyped for T regulatory cells were first stained with the desired antibodies against cell surface antigens for 30 minutes in the dark on ice. […]

CMV reactive human PMBCs = assay: In vitro 2FF and anti-PD1 antibody combination in human PBMCs (IFNγ, IL12p70); details: T-cells matured with 100-200 μM 2FF, co-culture with DCs, 5 μg/mL CMV antigen
Protocol: CMV reactive human PMBCs from a CMV positive donor (Astarte™ Biologics) were thawed, plated into a 6-well plate and cultured overnight in DC media (30% DMEM 70% X-vivo+2 mM glutamax+10% ATB serum+1% PS). The following day the supernatant was collected to isolate T-cells and the adhering cells were washed in media and then replenished with 2 mL media supplemented with IL4 (100 ng/μL) and GMCSF (200 ng/μL) per well to differentiate and proliferate the adhering monocytes into DCs. The plate was incubated for 4-5 days and then cells were moved into a T25 flask. Each time the cells were passaged (every 2-3 days) new cytokines were given. The T-cells in the supernatant were isolated using StemSep human T-cell enrichment kit (Stemcell technologies). The T-cells were then resuspended in T-cell media (RPMI+10% Fetal calf serum, 1% PS) and spilt into two T25 flasks (with or without 100-200 μM 2FF). CD3CD28 antibody coated beads (Miltenyi Biotec) (20 μL/flask) were added to activate the T-cells. After 24 h IL2 was added (100 ng/μL). Each time the cells were passaged new IL2 and 2FF were added. […]
IFNγ and IL12p70 in the supernatants from 5 day co-cultures were measured using a Lumenix assay and the concentration of each cytokine was calculated using an internal standard curve.

## C[C@@H]1OC(O)[C@@H](F)[C@H](O)[C@@H]1O (stereo partly drawn) [2-deoxy-2-fluoro-L-fucose]
[1]
  EBV-specific tetramer binding to treated T-cells vs control cells (flow cytometry): increase in EBV-specific tetramer binding
  tetramer binding with other antigens (flu, CMV) to treated T-cells vs control cells: slight increases
SMAD2
  SMAD2 phosphorylation following TGFβ stimulation vs control T-cells: reduced SMAD2 phosphorylation
Regulatory T-cells; CD4+, CD25+, CD127 LOW
  regulatory T-cell populations (percent of total cells): decrease in regulatory T-cell populations
Regulatory T-cells; gated on CD4+
  expression of FOXp3+ in treated T-cells: decreased expression of FOXp3+
4T1 cells; day 19 after implantation
  T regulatory cells in tumor: significantly decreased T regulatory cells
  dendritic cells in tumor: increased dendritic cells which are more activated
4T1 cells; day 28 after implantation
  memory and effector T cells in tumor: increased memory and effector T cells
CMV reactive human PMBCs
  antigen specific T cell response (IFNγ, IL12p70) of 2FF matured T-cells vs control cell: elevated antigen specific T cell response
